The Ki is the equilibrium dissociation constant of an inhibitor or competing ligand from its target.

Values joined by “and” are separate entries in the source; they are usually repeats but may differ in a detail not shown here. Equal entries are not always repeated.

The target of the assay is Voltage-dependent L-type calcium channel subunit alpha-1C (Rattus norvegicus, UniProt P22002).
Voltage-dependent L-type calcium channel subunit alpha-1C, sequence (P22002 whole entry): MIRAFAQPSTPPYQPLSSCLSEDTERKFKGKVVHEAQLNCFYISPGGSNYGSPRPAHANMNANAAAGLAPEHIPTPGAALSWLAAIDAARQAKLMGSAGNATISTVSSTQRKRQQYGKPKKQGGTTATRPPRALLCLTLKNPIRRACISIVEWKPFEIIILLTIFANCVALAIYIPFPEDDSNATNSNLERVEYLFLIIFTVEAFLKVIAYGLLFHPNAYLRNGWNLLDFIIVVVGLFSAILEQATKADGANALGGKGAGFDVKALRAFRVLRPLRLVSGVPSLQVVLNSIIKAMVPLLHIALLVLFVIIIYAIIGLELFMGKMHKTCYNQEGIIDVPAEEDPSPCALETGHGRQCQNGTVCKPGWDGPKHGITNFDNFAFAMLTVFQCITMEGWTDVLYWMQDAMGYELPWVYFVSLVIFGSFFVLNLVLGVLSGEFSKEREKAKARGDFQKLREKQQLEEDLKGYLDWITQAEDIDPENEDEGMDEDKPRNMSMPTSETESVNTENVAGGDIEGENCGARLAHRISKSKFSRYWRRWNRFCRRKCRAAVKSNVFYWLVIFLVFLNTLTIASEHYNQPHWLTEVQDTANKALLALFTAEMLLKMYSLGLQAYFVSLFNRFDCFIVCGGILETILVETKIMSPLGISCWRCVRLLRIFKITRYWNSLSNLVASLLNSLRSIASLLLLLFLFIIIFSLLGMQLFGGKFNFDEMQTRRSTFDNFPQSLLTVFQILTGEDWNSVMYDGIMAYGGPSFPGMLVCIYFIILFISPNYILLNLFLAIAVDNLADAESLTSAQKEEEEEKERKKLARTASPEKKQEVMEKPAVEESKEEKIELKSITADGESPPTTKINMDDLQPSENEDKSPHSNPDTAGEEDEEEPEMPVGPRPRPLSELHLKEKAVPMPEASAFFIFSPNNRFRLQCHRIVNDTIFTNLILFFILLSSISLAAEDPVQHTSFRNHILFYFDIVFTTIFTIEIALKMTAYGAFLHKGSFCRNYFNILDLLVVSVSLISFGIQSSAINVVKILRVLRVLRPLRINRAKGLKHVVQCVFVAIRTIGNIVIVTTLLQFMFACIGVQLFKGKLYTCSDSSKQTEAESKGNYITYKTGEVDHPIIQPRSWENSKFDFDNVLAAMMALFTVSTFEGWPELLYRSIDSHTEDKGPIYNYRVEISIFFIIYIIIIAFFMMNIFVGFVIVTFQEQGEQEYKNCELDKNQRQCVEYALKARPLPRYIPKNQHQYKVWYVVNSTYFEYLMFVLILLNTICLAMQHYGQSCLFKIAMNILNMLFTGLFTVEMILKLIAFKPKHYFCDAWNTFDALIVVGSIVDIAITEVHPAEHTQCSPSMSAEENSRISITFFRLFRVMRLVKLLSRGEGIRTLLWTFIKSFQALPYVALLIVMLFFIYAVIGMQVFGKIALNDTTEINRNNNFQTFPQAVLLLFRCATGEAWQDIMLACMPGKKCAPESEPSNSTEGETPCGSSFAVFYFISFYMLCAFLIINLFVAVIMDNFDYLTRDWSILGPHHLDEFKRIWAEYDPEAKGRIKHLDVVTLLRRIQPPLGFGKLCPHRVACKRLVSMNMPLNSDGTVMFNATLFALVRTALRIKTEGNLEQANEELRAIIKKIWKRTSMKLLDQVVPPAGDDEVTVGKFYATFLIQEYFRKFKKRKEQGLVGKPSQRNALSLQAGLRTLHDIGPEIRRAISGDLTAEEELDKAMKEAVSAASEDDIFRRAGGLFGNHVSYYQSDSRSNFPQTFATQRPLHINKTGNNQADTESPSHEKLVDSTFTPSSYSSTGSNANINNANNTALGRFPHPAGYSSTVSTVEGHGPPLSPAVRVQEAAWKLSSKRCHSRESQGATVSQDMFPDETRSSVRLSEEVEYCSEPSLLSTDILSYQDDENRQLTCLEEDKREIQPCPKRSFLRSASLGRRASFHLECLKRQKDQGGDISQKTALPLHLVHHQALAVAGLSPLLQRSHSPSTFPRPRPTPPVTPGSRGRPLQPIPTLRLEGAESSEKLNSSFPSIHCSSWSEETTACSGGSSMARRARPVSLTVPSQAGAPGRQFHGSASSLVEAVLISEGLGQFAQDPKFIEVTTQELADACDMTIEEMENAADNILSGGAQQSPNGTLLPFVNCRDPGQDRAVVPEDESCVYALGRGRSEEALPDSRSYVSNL
For `COc1ccc([C@@H]2Sc3cc(Cl)ccc3N(CCN(C)C)C(=O)[C@@H]2OC(C)=O)cc1` [CAS_96128-92-6], the inhibition constant Ki is above 10 µM.

As to `COc1cc2nc(N3CCN(C(=O)c4ccco4)CC3)nc(N)c2cc1OC` [[3H]-Minipress], the Ki is 6 µM and > 10 µM.

As for `COc1ccc([C@H]2Sc3cc(Cl)ccc3N(CCN(C)C)C(=O)[C@H]2OC(C)=O)cc1` [l-TA-3090], the inhibition constant Ki was above 10 µM.

Values taken from BindingDB's records for PubMed 2338642 (Marion Merrell Dow, 1990).
